Assay results from PMC10937738, “Evaluation of the photoprotective and antioxidant potential of an avobenzone derivative” (Frontiers in Physiology, 2024).
Values joined by “and” are separate entries in the source; they are usually repeats but may differ in a detail not shown here. Equal entries are not always repeated. “Also recorded” adds a separate entry of the source.

Tests used:
[1] = Photoreactivity ROS assay (OECD TG 495): singlet oxygen (SO) and superoxide anion (SA) generation
Protocol: The photoreactivity assay was conducted to detect the generation of oxygen singlet (^1O2; SO) and superoxide anion (O2 ^−•; SA), according to OECD TG n° 495, as described in [Freitas et al. (2015)]. […] SO generation was detected by spectrophotometric measurement of p-nitrosodimethylaniline (RNO) bleaching, followed by decreased absorbance of RNO at 440 nm and SA generation was detected by observing the reduction of nitroblue tetrazolium (NBT) at 560 nm. The assay was performed in triplicate in three independent experiments.
According to the ROS Assay protocol ([OECD, 2019b]), the compound’s photoreactivity is classified according to Table 2.

3T3 BALB/c fibroblasts = experiment: 3T3 Neutral red uptake phototoxicity test (3T3 NRU PT, OECD TG 432); assay type: cell-based; conditions: UVA 9 J/cm^2
Protocol: The 3t3 Neutral red uptake phototoxicity (3t3 NRU PT) test was performed in accordance to OECD TG n° 432 ([OECD, 2019a]) using 3T3 BALB/c fibroblasts cells from the Cell Bank of Rio de Janeiro (Rio de Janeiro, Brazil). Fibroblasts were cultured in DMEM supplemented with calf serum (10% v/v), L-glutamine (4 mM) and antibiotic mixture (penicillin, streptomycin and amphotericin B) and incubated at 37°C with 5% CO2. […] The initial concentration for the proportion 5:7:5 was 100 μg/mL for octyl methoxycinnamate, 71.4 μg/mL for avobenzone, and 71.4 μg/mL for avobenzone derivative. These preparations were also diluted in PBS (pH 7.2) to generate samples with 8 different concentrations in a geometric progression (constant factor = 1.47). The highest final concentration of DMSO was 1%. Fibroblasts were seeded at a density of 10^4 cell/well and after 24 h of incubation (5% CO2; 37°C), they were treated with 8 different concentrations of the combinations in the wells in sextuplicate, incubated for 1 h (5% CO2; 37°C) and irradiated with UVA radiation of 9 J/cm^2. […]
Cell viability was measured using the NRU assay with the uptake of the vital dye neutral red into cellular lysosomes. […] After measuring the absorbance of both plates at 540 nm using a microplate reader (SynergyTM 2, Biotek), all data were analyzed by Phototox Software 2.0 (ZEBET, Germany), and the mean photo effect (MPE) was calculated. […]

HaCaT keratinocytes [2] = experiment: Protection against intracellular UVA-induced ROS production (DCFH2-DA probe), HaCaT monolayer; assay type: cell-based; conditions: UVA 4 J/cm^2
Protocol: To evaluate intracellular ROS production, such as hydroxyl radical, hydrogen peroxide, nitrite and carbonate anion, the probe 2,7-dichlorodihydrofluorescein-diacetate (DCFH2-DA) was used. This probe can undergo hydrolysis by cellular esterases forming the compound DCFH, that can be converted by ROS into the fluorescent compound […] (DCF), measured at the end of the assay ([Kalyanaraman et al., 2012]; [Alam et al., 2013]). The assay was performed under the same conditions (cell type, density and exposure times) as the evaluation of cell viability in immortalized HaCaT keratinocytes.
In detail, 1 × 10^5 cells/well of HaCaT keratinocytes were seeded in 96-well plates and incubated for 24 h at 37°C in a 5% CO2 atmosphere. Then, cells were treated with the avobenzone derivative (31,25–1,000 μg/mL; constant factor: 2) for 1 h and the probe DCFH2-DA (10 µM) for 30 min, followed by 4 J/cm^2 of UVA radiation (Solar simulator Dr. Hönle type SOL-500, Planegg, Germany). This UV waveband was chosen because UVA and visible light are the most relevant radiations for ERO production ([Zastrow et al., 2009]; [Vandersee et al., 2015]). Quercetin (10 μg/mL) and norfloxacin (100 μg/mL) were used as antioxidant and pro-oxidant controls, respectively. The plates were measured using a microplate reader (Synergy™ HT, BioTek, United States) at 485 nm excitation and 528 nm emission. Results are expressed as a percentage of fluorescence in relation to the irradiated control, considered 100%.

HaCaT keratinocytes [3] = experiment: Cell viability of HaCaT keratinocytes (NRU assay); assay type: cell-based; conditions: SDS 100 μg/mL; for Cytotoxicity for HaCaT cells: avobenzone derivative 31.25–1,000 μg/mL, vs untreated control, 70% threshold ISO 10993-5
Protocol: Prior to the beginning of the assay, cell viability was evaluated to exclude the possibility that the decrease in fluorescence intensity was related to cell death and not to antioxidant activity. HaCaT keratinocytes were cultured in DMEM supplemented with fetal bovine serum (10%), pyruvate (1 mM), penicillin (100 IU/mL) and streptomycin (100 μg/mL), seeded in 96-well plates (1 × 10^5 cells/well) and, 24 h later, treated with avobenzone derivative (31,25–1000 μg/mL; constant factor: 2). Cell viability was determined using the NRU assay ([Gaspar et al., 2013]; [Rangel et al., 2020]) and sodium dodecyl sulfate (SDS) was used as a positive control (100 μg/mL). Untreated cells absorbance at 540 nm were considered 100% of cell viability to calculate the percentage relative to each sample tested.

[4] = Photostability by UV spectrophotometry, solutions in isopropanol; assay type: physicochemical
Protocol: To assess the photoprotective potential of the new UV filter’s derivative, as well as its combination with avobenzone and octyl methoxycinnamate (Cb), a photostability assay was conducted irradiating all samples at a dose of 27,6 J/cm^2 emitted by a UVA lamp (Philips UVA Actinic BL/10, Netherlands) ([ICH, 1996]; [1998]), while the negative controls were kept in a dark place. The derivative was tested at 100 μg/mL in isopropanol and the combinations Cb (avobenzone, octyl methoxycinnamate and avobenzone derivative) and Cc (avobenzone, octyl methoxycinnamate and ethylhexyl methoxycrylene were tested with a proportion of 4:8:5 (w/w), where the initial concentrations were 100 μg/mL for octyl methoxycinnamate, 50 μg/mL for avobenzone and 62.5 μg/mL for avobenzone derivative/ethylhexyl methoxycrylene. Solutions were analyzed by spectrophotometry in the 280–400 nm range. The results are expressed as a percentage of the area of irradiated samples related to the area of non-irradiated samples according to [Gaspar and Maia Campos (2006)] and [Tavares et al. (2020)].

[5] = parameters: method as in Santana Reis et al., 2014; conditions: method not stated; ref Santana Reis et al., 2014; cited from earlier work
[6] = DPPH free radical scavenging; conditions: 30 min in the dark, absorbance 517 nm
Protocol: The DPPH free radical scavenging method was conducted according to [Martins et al. (2016)], with modifications. This assay is based on the reduction of the 2,2-diphenyl-1-picrylhydrazyl radical by the antioxidant agent, acting as a hydrogen donor. DPPH is a stable radical due to its molecular conformation, capable of reacting with hydrogen/electron donors, generating its reduced form, accompanied by a reduction in its absorbance (517 nm) ([Kedare and Singh, 2011]). The antioxidant activity is then determined by monitoring the change in the color of the reaction medium, changing from violet to yellow ([Pisoschi and NEgulescu, 2012]).
In a 96-well plate, 100 µL of each sample were diluted in methanol. The concentrations used for avobenzone derivative under study were […] (constant factor: 2) and quercetin was used as a positive control for the test (14–0.109 μg/mL, constant factor: 2). The plate was covered and kept in a dark place for 30 min at room temperature. The absorbance reading was performed at 517 nm using a microplate reader (Synergy™ 2#, Biotek, United States), and the results obtained were used to calculate the inhibition percentages. […] The half maximum inhibitory concentration (IC50-DPPH) was calculated using the linear equation by replacing the value of y with 50 ([Chen et al., 2013]).

[7] = test system: reconstructed human skin (RHS); experiment: UVA-induced intracellular ROS production (DCFH2-DA probe) in reconstructed human skin model; assay type: cell-based; conditions: 200 μg/mL, 25 µL topical 1 h; UVA 10 J/cm^2
Protocol: In-house RHS models were prepared on 24-well cell culture inserts, with primary human fibroblasts and keratinocytes from foreskin (pooled from three donors) after approval by the Ethics Committee in Research Involving Human Beings—School of Pharmaceutical Sciences of Ribeirão Preto—USP (CAAE n° 35685220.3.0000.5403; Protocol CEP/FCFRP n° 551).
Primarily, the dermal compartment consisted of collagen type I (Corning®) and 1.14 × 10^5 normal human fibroblasts that were seeded into the insert (0.4 µm pore size; ThinCert™, Greiner Bio-One GmbH, Frickenhausen—Germany) and incubated overnight. After 20 h, 3.7 × 10^5 normal human keratinocytes were seeded on the top of the dermis mixture and kept submerged in an in-house prepared culture medium for 24 h, so the cells could form a monolayer. […]
Immediately after irradiation and washing with PBS, the tissues were frozen in liquid nitrogen and 8 µm histological sections were obtained in a cryostat. Pictures were taken in an inverted Ti-S microscope (Nikon Instruments Inc., Holland), 488 nm, using 100 ms of exposure intensity and analyzed by ImageJ software ([Rasmussen et al., 2010]; [Marionnet et al., 2014]). Results of fluorescence intensity were normalized to area/pixels and expressed as percent fluorescence compared to untreated irradiated (NT + UV) control, considered 100%.

[8] = solutions in isopropanol, UVA dose 27,6 J/cm^2, area under curve of irradiated vs non-irradiated (100%)

CC(C(=O)O)c1cccc(C(=O)c2ccccc2)c1 (stereo not drawn) [Ketoprofen, ketoprofen]
SA (superoxide anion generation, NBT reduction at 560 nm) ([1]; avobenzone derivative 1.0 mM, mean ± SEM, n = 3): 116 ± 20.6

N[C@@H](Cc1c[nH]cn1)C(=O)O [L-histidine]
Classification (photoreactivity) [1]: Non-photoreactive

CCn1cc(C(=O)O)c(=O)c2cc(F)c(N3CCNCC3)cc21 [Norfloxacin, reference compound]
MPE (mean photo effect) (3T3 BALB/c fibroblasts; Phototox Software 2.0, one value per independent experiment (two)): 0.568 and 0.520 | Increase of ROS production compared to NT + UV (HaCaT keratinocytes [2]; 100 μg/mL): approx. 46%

CCCCCCCCCCCCOS(=O)(=O)[O-].[Na+] [SDS, sodium dodecyl sulfate]
Cell viability (HaCaT keratinocytes [3]; untreated cells = 100%): < 70% | Cytotoxicity for HaCaT cells (HaCaT keratinocytes [3]): cytotoxic

O=C(N/N=C/c1ccc(O)cc1)c1ccc(O)cc1 [avobenzone derivative, (E)-4-hidroxi-N’-(4-hydroxybenzylidene)benzohydrazide]
Prediction model (phototoxicity) (3T3 BALB/c fibroblasts; OECD TG 432): non phototoxic; also recorded: Non-Phototoxic | Remaining absorption values after irradiation (%) UVA [4, 8]: 97.7 ± 2.5% | Remaining absorption values after irradiation (%) UVB [4, 8]: 97.8 ± 2.1% | Stability classification ([4]; solutions, irradiated vs non-irradiated pair (p < 0.05 = photounstable)): Photostable | LogP [5]: 1.32 ± 0.52 | Classification (photoreactivity) [1]: Non-photoreactive | IC50 (DPPH) [6]: 18.2 ± 10.2 µg/mL | Reduction in ROS generation compared to NT + UV (HaCaT keratinocytes [2]; 125 μg/mL): 37% | Reduction in ROS generation compared to NT + UV (HaCaT keratinocytes [2]; 250 μg/mL): 31% | Reduction in ROS generation compared to NT + UV (HaCaT keratinocytes [2]; 500 μg/mL): 58% | ROS values higher than NT + UV (possible pro-oxidant effect) (HaCaT keratinocytes [2]; 1,000 μg/mL): 5% | Reduction in ROS generation compared to NT + UV [7]: 30.7% | Cytotoxicity for HaCaT cells (HaCaT keratinocytes [3]): not cytotoxic

O=c1c(O)c(-c2ccc(O)c(O)c2)oc2cc(O)cc(O)c12 [quercetin, reference compound]
IC50 (DPPH) [6]: 2.85 ± 1.03 µg/mL | Decrease of ROS production compared to NT + UV (HaCaT keratinocytes [2]; 10 μg/mL): approx. 67%
